Reference: PubChem BioAssay AID1845198 (Molecular Pharmacology Branch, DTP, NCI, 2023)

Tested on: 425362-245-T-J1 tumor spheroids, viability % test/control
Test: Anticancer human tumor 425362-245-T-J1 patient-derived melanoma cell line growth inhibition
Conditions: spheroids with HUVEC and MSC; for IC50: curve of first compound; for viability, T/C: stronger effect = lower value
Source text: Multicellular complex tumor spheroid response to DNA repair inhibitors in combination with DNA-damaging drugs
This study explores the anticancer activities of DNA-damaging drugs and inhibitors of DNA damage repair, both as single agents and in combinations. Complex tumor spheroids comprised of malignant cells, endothelial cells and mesenchymal stem cells served as an in vitro model for human solid tumors. This model system incorporates physiologically relevant features and patient-derived or established malignant cell lines with clinically relevant genetic alterations from many tumor types. Twenty-six patient-derived or established malignant cell lines were evaluated representing sarcoma, melanoma, small cell lung cancer (SCLC), non-small cell lung cancer (NSCLC), as well as bladder, ovarian and pancreatic cancers. The concentration ranges selected for each drug and investigational agent were based upon clinically achievable concentrations if the clinical Cmax of the agent was known.
Compounds. The drugs and compounds olaparib (NSC753686), talazoparib (NSC767125), berzosertib (NSC777718), elimusertib (NSC800525), nedisertib (NSC802822), VX-984 (NSC792969), AZD-1390 (NSC803789), temozolomide (NSC362856), topotecan (NSC609699), trabectedin (NSC813783), staurosporine (NSC755774), and gemcitabine (NSC613327) were obtained from the National Cancer Institute (NCI) Developmental Therapeutics Program Chemical Repository. The FDA-approved anticancer drug set is available from the Developmental Therapeutics Program at https://dtp.cancer.gov/organization/dscb/obtaining/available_plates.htm. […] The stock solutions were prepared in dimethyl sulfoxide (DMSO, Sigma-Aldrich, St. Louis, MO, cat. D2650) at 400-fold the tested concentration and stored at -70 degrees C. Prior to their use, the stock solutions were diluted in fresh medium and the final DMSO concentration in the assay was 0.25% (v/v). All drugs and investigational agents were tested over a range starting from a high concentration at or near the clinical Cmax and decreasing in half-log increments. If the clinical Cmax for an agent had not been determined, the highest concentration tested was 10 microM.
Cell Lines. The patient-derived cancer cell (PDC) lines: 156681-154-R-J1-PDC, 283228-195-R-J1-PDC, 287954-098-R-J1-PDC, 292921-168-R-J2-PDC, 349418-098-R-PDC, 425362-245-T-J1-PDC, 556581-035-R-J1-PDC, and BL0293-F563-PDC were received from the NCI Patient-Derived Models Repository (PDMR, https://pdmr.cancer.gov). The established cell lines HS-SY-2 (RRID:CVCL_8719), MPNST, and SYO-1 (RRID:CVCL_7146) were obtained from the Sloan Kettering Institute. The alveolar soft parts sarcoma cell line ASPS-1 (RRID:CVCL_S738) was established at the NCI and grown from internal seed stocks. The following established cell lines were purchased from the American Type Culture Collection (ATCC, Manassas, VA): G-401 (ATCC, cat. CRL-1441, RRID:CVCL_0270), SW982 (ATCC, cat. HTB-93, RRID:CVCL_1734), VA-ES-BJ (ATCC, cat. CRL-2138, RRID:CVCL_1785), NCI-H719 (ATCC, cat. CRL-5837, RRID:CVCL_1582), NCI-H196 (ATCC, cat. CRL-5823, RRID:CVCL_1509), NCI-H841 (ATCC, cat. CRL-5845, RRID:CVCL_1595), NCI-H1618 (ATCC, cat. CRL-5879, RRID:CVCL_1480), NCI-H1876 (ATCC, cat. CRL-5902, RRID:CVCL_1503), DMS 114 (ATCC, cat. CRL-2066; RRID:CVCL_1174), NCI-H211 (ATCC, cat. CRL-5824; RRID:CVCL_1529), and SW 1271 (ATCC, cat. CRL-2177, RRID:CVCL_1716). The small cell lung cancer cell line COR-L88 was purchased from Sigma-Aldrich (cat. 92031917-1VL, RRID:CVCL_1141). The non-small cell lung cancer cell lines NCI-H226 (RRID:CVCL_1544) and NCI-H322M (RRID:CVCL_1557) were established at the NCI and grown from internal seed stocks. Pooled donor human umbilical vein endothelial cells (HUVEC, Lonza, cat. CC-2519) and human mesenchymal stem cells (hMSC, Lonza, cat. PT-2501) were purchased from Lonza (Walkersville, MD).
Cell Culture. All cells were maintained in an incubator at 37 degrees C and 5% CO2 with 95% humidity. […]

[1] = second compound 0.003 µM, first compound 0.00949 µM
[2] = second compound 0.003 µM, first compound 0.03 µM
[3] = second compound 0.003 µM, first compound 0.0949 µM
[4] = second compound 0.003 µM, first compound 0.3 µM
[5] = second compound 0.003 µM, first compound 0.949 µM
[6] = second compound 0.003 µM, first compound 3 µM
[7] = second compound 0.00949 µM, first compound 0.00949 µM
[8] = second compound 0.00949 µM, first compound 0.03 µM
[9] = second compound 0.00949 µM, first compound 0.0949 µM
[10] = second compound 0.00949 µM, first compound 0.3 µM
[11] = second compound 0.00949 µM, first compound 0.949 µM
[12] = second compound 0.00949 µM, first compound 3 µM
[13] = second compound 0.03 µM, first compound 0.00949 µM
[14] = second compound 0.03 µM, first compound 0.03 µM
[15] = second compound 0.03 µM, first compound 0.0949 µM
[16] = second compound 0.03 µM, first compound 0.3 µM
[17] = second compound 0.03 µM, first compound 0.949 µM
[18] = second compound 0.03 µM, first compound 3 µM
[19] = second compound 0.0949 µM, first compound 0.00949 µM
[20] = second compound 0.0949 µM, first compound 0.03 µM
[21] = second compound 0.0949 µM, first compound 0.0949 µM
[22] = second compound 0.0949 µM, first compound 0.3 µM
[23] = second compound 0.0949 µM, first compound 0.949 µM
[24] = second compound 0.0949 µM, first compound 3 µM
[25] = second compound 0.3 µM, first compound 0.00949 µM
[26] = second compound 0.3 µM, first compound 0.03 µM
[27] = second compound 0.3 µM, first compound 0.0949 µM
[28] = second compound 0.3 µM, first compound 0.3 µM
[29] = second compound 0.3 µM, first compound 0.949 µM
[30] = second compound 0.3 µM, first compound 3 µM
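Further: spheroids exposed to agents for 7 days.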
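Wherever viability, T/C is given: 100% = DMSO vehicle control viability.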

For `CNCc1ccc(-c2cc(-c3nc(-c4ccc(S(=O)(=O)C(C)C)cc4)cnc3N)on2)cc1` + CC[C@@]1(O)C(=O)OCc2c1cc1n(c2=O)Cc2cc3c(CN(C)C)c(O)ccc3nc2-1, the IC50 (second compound 0.003 µM) was 55 nM, the IC50 (second compound 0.00949 µM) was 47.5 nM and the IC50 (second compound 0.03 µM) was < 9.49 nM. The IC50 (second compound 0.0949 µM) was < 9.49 nM, the IC50 (second compound 0.3 µM) was < 9.49 nM and the viability, T/C [1] was 75.8%. It also gave a viability, T/C [2] of 69.4%, a viability, T/C [3] of 32.7% and a viability, T/C [4] of 5.49%. The viability, T/C [5] was 2.14%, the viability, T/C [6] was 0.22% and the viability, T/C [7] was 70%. For the same molecule, the viability, T/C [8] was 73%, the viability, T/C [9] was 17.6% and the viability, T/C [10] was 4.43%. It also gave a viability, T/C [11] of 2.33%, a viability, T/C [12] of 0.18% and a viability, T/C [13] of 33.9%. For the same molecule, the viability, T/C [14] was 17.8%, the viability, T/C [15] was 10.4% and the viability, T/C [16] was 2.7%. It also gave a viability, T/C [17] of 1.35%, a viability, T/C [18] of 0.15% and a viability, T/C [19] of 4.36%. For the same molecule, the viability, T/C [20] was 4.83%, the viability, T/C [21] was 2.64% and the viability, T/C [22] was 2.59%. For the same molecule, the viability, T/C [23] was 1.05%, the viability, T/C [24] was 0.21% and the viability, T/C [25] was 1.97%. For the same molecule, the viability, T/C [26] was 1.87%, the viability, T/C [27] was 1.95% and the viability, T/C [28] was 1.64%. For the same molecule, the viability, T/C [29] was 1.08% and the viability, T/C [30] was 0.28%.

With `Cn1ncnc1[C@H]1c2n[nH]c(=O)c3cc(F)cc(c23)N[C@@H]1c1ccc(F)cc1` + CC[C@@]1(O)C(=O)OCc2c1cc1n(c2=O)Cc2cc3c(CN(C)C)c(O)ccc3nc2-1 the IC50 (second compound 0.003 µM) was < 9.49 nM, the IC50 (second compound 0.00949 µM) was < 9.49 nM and the IC50 (second compound 0.03 µM) was < 9.49 nM. The IC50 (second compound 0.0949 µM) was < 9.49 nM, the IC50 (second compound 0.3 µM) was < 9.49 nM and the viability, T/C [1] was 47.8%. For the same molecule, the viability, T/C [2] was 30.3%, the viability, T/C [3] was 17.6% and the viability, T/C [4] was 11.1%. The viability, T/C [5] was 5.98%, the viability, T/C [6] was 2.38% and the viability, T/C [7] was 28.2%. The viability, T/C [8] was 13.9%, the viability, T/C [9] was 9.54% and the viability, T/C [10] was 9.4%. It also gave a viability, T/C [11] of 6.02%, a viability, T/C [12] of 3.27% and a viability, T/C [13] of 8.39%. It also gave a viability, T/C [14] of 8.16%, a viability, T/C [15] of 7.89% and a viability, T/C [16] of 6.48%. For the same molecule, the viability, T/C [17] was 3.96%, the viability, T/C [18] was 2.32% and the viability, T/C [19] was 4.28%. The viability, T/C [20] was 3.95%, the viability, T/C [21] was 3.86% and the viability, T/C [22] was 3.16%. For the same molecule, the viability, T/C [23] was 2.57%, the viability, T/C [24] was 1.79% and the viability, T/C [25] was 2.13%. It also gave a viability, T/C [26] of 1.9%, a viability, T/C [27] of 1.79% and a viability, T/C [28] of 1.71%. The viability, T/C [29] was 1.43% and the viability, T/C [30] was 1.33%.
